In patent publication US8809343B2, “Pyrimidine derivative, preparation method and use thereof” (Fudan University, priority 2008, dated 2014):

Tested on: HIV-1 IIIB strain
Test: Anti-HIV activity: protection of HIV-infected MT-4 cells from virus-induced cell lesions
Assay type: cell-based
Settings: HIV-1 IIIB, MT-4 cells, Table 1
Protocol: (§1) Anti-virus activity of cells in vitro was determined by Rega Institute for Medical of […] Katholleke University, consisting mainly: inhibitory activity towards HIV-infected MT-4 cells and cell toxicity. The method is described below: exert the compound on the HIV-infected ME-4 cells, and determine the protection of the drug on the cell lesions induced by HIV at varied HIV-infection intervals, calculate the half effective concentration IC50, the required concentration that protect 50% of cells from cell lesions induced by HIV. Toxicity determination is carried out in parallel with anti-HIV activity experiments, also in the cultured MT-4 cells, determine the CC50, the concentration that leads 50% of uninfected cells to cell lesions, and calculate the selectivity index SI=CC50/IC50 with the MTT method.
(§2) Anti-HIV activity of various compounds is monitored by the inhibitory efficiency of drugs on the cell lesions induced by HIV. Carry out cell culture with MT-4 cells. The adopted virus strains are HIV-1 IIIB strain and drug-resistant viral strain of […].
(§3) The detailed operation is as follows: the compound is dissolved with DMSO or water and diluted with phosphate buffer saline, 3×10^5 MT-4 cells are cultured with 100 μL various concentrations of compounds for 1 h, then 100 μL suitable virus dilution is added to the compound, and the cells are cultured at 37° C. for 1 h. After being washed for 3 times, the cells are suspended again in the culture media containing or not compounds individually. Subsequently, the cells are transferred to the atmosphere containing 5% CO2 and cultured for 7 days at 37° C., and culture media containing or not compounds are used to replace or supplement the culture solution on the third day after infection. Kinds of culture conditions should be duplicated. The cell lesions caused by virus are monitored with reverse light microscopy everyday. Typically, the virus dilution applied in the present experiments generally cause cell lesion on the fifth day after infection. […] It should be emphasized that, when the compound is poorly water-soluble and can only be dissolved in DMSO, the ratio of DMSO to water is generally below 10% (the final concentration of DMSO in MT-4 cell culture media is smaller than 2%). Because DMSO can influence the anti-virus activity of the tested compounds, blank tests on the solution containing the same concentration of DMSO should be conducted in parallel. Additionally, the final concentration of DMSO is far below the concentration required to influence the replication of HIV-1 in T cells.

Compound	SI (Selectivity index, the ratio of CC50/IC50)
O=C1Nc2ccc(Cl)cc2[C@@](C#CC2CC2)(C(F)(F)F)O1 [EFV, efavirenz, reference compound]	>1434
N#Cc1ccc(Nc2nc(Cl)cc(Oc3cccc4cccnc34)n2)cc1 [Compound 2]	1031
N#Cc1ccc(Nc2nccc(Oc3cccc4cccnc34)n2)cc1 [Compound 1]	13393
CNc1cc(Oc2cccc3cccnc23)nc(Nc2ccc(C#N)cc2)n1 [Compound 3]	6089
COc1cc(Oc2cccc3cccnc23)nc(Nc2ccc(C#N)cc2)n1 [Compound 4]	3299

Same assay, conditions: HIV-1 IIIB, MT-4 cells, Table 3

Compound	SI (Selectivity index, the ratio of CC50/IC50)
O=C1Nc2ccc(Cl)cc2[C@@](C#CC2CC2)(C(F)(F)F)O1 [EFV, efavirenz, reference compound]	>2174

Same assay, conditions: Human immunodeficiency virus 1, IIIB, MT4, read-out: EC50 HIV-1(IIIB)

Compound	EC50 [nM]
N#Cc1ccc(Nc2nc(Cl)cc(Oc3cccc4cccnc34)n2)cc1 [Compound 2]	19.5
N#Cc1ccc(Nc2nccc(Oc3cccc4cccnc34)n2)cc1 [Compound 1]	2.9
CNc1cc(Oc2cccc3cccnc23)nc(Nc2ccc(C#N)cc2)n1 [Compound 3]	8.9
COc1cc(Oc2cccc3cccnc23)nc(Nc2ccc(C#N)cc2)n1 [Compound 4]	12.8

Same assay, conditions: Human immunodeficiency virus 1, IIIB, MT4, read-out: EC50 WT(IIIB)

Compound	EC50 [nM]
COc1c(Oc2ccnc(Nc3ccc(C#N)cc3)n2)ccc2cc(C#N)ccc12 [Compound 20]	1.2
COc1cc2cc(C#N)ccc2c(Cl)c1Oc1ccnc(Nc2ccc(C#N)cc2)n1 [Compound 24]	0.6
COc1cc2cc(C#N)ccc2cc1Oc1ccnc(Nc2ccc(C#N)cc2)n1 [Compound 21]	0.9
N#Cc1ccc(Nc2nccc(Oc3ccc4cc(C#N)ccc4c3Cl)n2)cc1 [Compound 23]	1.8
COc1cc2cc(C#N)ccc2c(OC)c1Oc1ccnc(Nc2ccc(C#N)cc2)n1 [Compound 22]	0.8

Same assay, conditions: Human immunodeficiency virus 1, IIIB, MT4; MT-4 cells, Table 1; read-out: EC50 HIV-1(IIIB)

Compound	EC50 [nM]
O=C1Nc2ccc(Cl)cc2[C@@](C#CC2CC2)(C(F)(F)F)O1 [EFV, efavirenz, reference compound]	3

Same assay, conditions: Human immunodeficiency virus 1, IIIB, MT4; MT-4 cells, Table 2; read-out: EC50 WT(IIIB)

Compound	EC50 [nM]
O=C1Nc2ccc(Cl)cc2[C@@](C#CC2CC2)(C(F)(F)F)O1 [EFV, efavirenz, reference compound]	3

Same assay, conditions: WT(IIIB), Table 2

Compound	SI (Selectivity index, the ratio of CC50/IC50)
O=C1Nc2ccc(Cl)cc2[C@@](C#CC2CC2)(C(F)(F)F)O1 [EFV, efavirenz, reference compound]	>1434
COc1c(Oc2ccnc(Nc3ccc(C#N)cc3)n2)ccc2cc(C#N)ccc12 [Compound 20]	≧134032
COc1cc2cc(C#N)ccc2c(Cl)c1Oc1ccnc(Nc2ccc(C#N)cc2)n1 [Compound 24]	≧25701
COc1cc2cc(C#N)ccc2cc1Oc1ccnc(Nc2ccc(C#N)cc2)n1 [Compound 21]	>158228
N#Cc1ccc(Nc2nccc(Oc3ccc4cc(C#N)ccc4c3Cl)n2)cc1 [Compound 23]	47964
COc1cc2cc(C#N)ccc2c(OC)c1Oc1ccnc(Nc2ccc(C#N)cc2)n1 [Compound 22]	≧25000

Tested on: drug-resistant viral strain of L103N+Y181C
Test: Anti-HIV activity in MT-4 cells, drug-resistant viral strain
Assay type: cell-based, HIV-1
Settings: Human immunodeficiency virus 1, MT4, read-out: EC50 103N + 181C, MT-4 cells, Table 1
Protocol: as §1, §2, §3

Compound	EC50 [nM]
O=C1Nc2ccc(Cl)cc2[C@@](C#CC2CC2)(C(F)(F)F)O1 [EFV, efavirenz, reference compound]	560000
N#Cc1ccc(Nc2nc(Cl)cc(Oc3cccc4cccnc34)n2)cc1 [Compound 2]	≥ 20100
N#Cc1ccc(Nc2nccc(Oc3cccc4cccnc34)n2)cc1 [Compound 1]	≥ 38800
CNc1cc(Oc2cccc3cccnc23)nc(Nc2ccc(C#N)cc2)n1 [Compound 3]	≥ 54200
COc1cc(Oc2cccc3cccnc23)nc(Nc2ccc(C#N)cc2)n1 [Compound 4]	≥ 42200

Same assay, conditions: Human immunodeficiency virus 1, MT4, read-out: EC50 103N + 181C, MT-4 cells, Table 2

Compound	EC50 [nM]
O=C1Nc2ccc(Cl)cc2[C@@](C#CC2CC2)(C(F)(F)F)O1 [EFV, efavirenz, reference compound]	560
COc1c(Oc2ccnc(Nc3ccc(C#N)cc3)n2)ccc2cc(C#N)ccc12 [Compound 20]	380
COc1cc2cc(C#N)ccc2c(Cl)c1Oc1ccnc(Nc2ccc(C#N)cc2)n1 [Compound 24]	150
N#Cc1ccc(Nc2nccc(Oc3ccc4cc(C#N)ccc4c3Cl)n2)cc1 [Compound 23]	700
COc1cc2cc(C#N)ccc2c(OC)c1Oc1ccnc(Nc2ccc(C#N)cc2)n1 [Compound 22]	160

Tested on: not listed separately
Test: Cell toxicity in uninfected MT-4 cells (MTT method)
Assay type: cell-based
Settings: human, Table 1
Protocol: as §1, §3

Compound	CC50 at 7 days [nM]
O=C1Nc2ccc(Cl)cc2[C@@](C#CC2CC2)(C(F)(F)F)O1 [EFV, efavirenz, reference compound]	4300

Same assay, conditions: human, Table 3

Compound	CC50 at 7 days [nM]
O=C1Nc2ccc(Cl)cc2[C@@](C#CC2CC2)(C(F)(F)F)O1 [EFV, efavirenz, reference compound]	> 6340

Same assay, conditions: human, uninfected MT-4 cells, Table 1

Compound	CC50 at 7 days [nM]
N#Cc1ccc(Nc2nc(Cl)cc(Oc3cccc4cccnc34)n2)cc1 [Compound 2]	20100
N#Cc1ccc(Nc2nccc(Oc3cccc4cccnc34)n2)cc1 [Compound 1]	38800
CNc1cc(Oc2cccc3cccnc23)nc(Nc2ccc(C#N)cc2)n1 [Compound 3]	54200
COc1cc(Oc2cccc3cccnc23)nc(Nc2ccc(C#N)cc2)n1 [Compound 4]	42200

Same assay, conditions: human, uninfected MT-4 cells, Table 2

Compound	CC50 at 7 days [nM]
COc1c(Oc2ccnc(Nc3ccc(C#N)cc3)n2)ccc2cc(C#N)ccc12 [Compound 20]	161000
COc1cc2cc(C#N)ccc2c(Cl)c1Oc1ccnc(Nc2ccc(C#N)cc2)n1 [Compound 24]	15400
COc1cc2cc(C#N)ccc2cc1Oc1ccnc(Nc2ccc(C#N)cc2)n1 [Compound 21]	142000
N#Cc1ccc(Nc2nccc(Oc3ccc4cc(C#N)ccc4c3Cl)n2)cc1 [Compound 23]	86300
COc1cc2cc(C#N)ccc2c(OC)c1Oc1ccnc(Nc2ccc(C#N)cc2)n1 [Compound 22]	20000

Biological target: T1, HIV-1 RT (Human immunodeficiency virus type 1 group M subtype B, UniProt P03366)
T1 construct: Screening for in vitro activity of anti HIV-1 reverse transcriptase (HIV-1 RT); made in house
Test: In vitro anti HIV-1 reverse transcriptase screening (Biotin-dUTP, OD450)
Assay type: biochemical
Settings: not given

Compound	IC50 [nM]
COc1c(Oc2ccnc(Nc3ccc(C#N)cc3)n2)ccc2cc(C#N)ccc12 [Compound 20]	2290
COc1cc2cc(C#N)ccc2cc1Oc1ccnc(Nc2ccc(C#N)cc2)n1 [Compound 21]	1320
COc1cc2cc(C#N)ccc2c(OC)c1Oc1ccnc(Nc2ccc(C#N)cc2)n1 [Compound 22]	94.5
